Values quoted from earlier work, collected in patent US20210299075A1 (priority 2020, published 2021).

Experiments:
[1] = system: adenovirus; details: Poli et al.; the only naked virus tested
[2] = system: herpes simplex virus, rhabdovirus, and other enveloped viruses; details: Poli et al.
[3] = Hendley et al.
[4] = frequent application

| Compound | antiviral activity against adenovirus [1] | antiviral activity against enveloped viruses [2] | antiviral activity [3] | irritation of the skin [4] |
| --- | --- | --- | --- | --- |
| O=C(O)CC(O)(CC(=O)O)C(=O)O [citric acid] | not effective | effective | – | – |
| CCO [ethyl alcohol] | – | – | performed poorly | – |
| II [iodine] | – | – | all except iodine performed poorly | too irritating to the skin |
| O=C(O)CC(O)C(=O)O (stereo not drawn) [malic acid] | not effective | effective | – | – |
| CC(=O)C(=O)O [pyruvic acid] | not effective | effective | – | – |
| O=C(O)CCC(=O)O [succinic acid] | not effective | effective | – | – |
| benzalkonium chloride [benzalkonium chloride (BAK)] | – | – | performed poorly | – |
